Series [1] can be described thus: Single-point microsomal metabolic stability, mouse. The series is classed as in vitro ADME. The settings on record: mouse liver microsomes, 1 µM. As to the method:
1.8. Microsomal metabolic stability studies […]
rat IGS, Xenotech), and mouse (male mouse CD1, Xenotech) liver microsomes (0.4 mg/ml) for 30 min at 37 °C. Reactions were quenched by adding ice-cold acetonitrile containing […]
disappearance of the parent compound. Half-life, clearance, and hepatic excretion ratios were determined using standard equations.6,7 Propranolol. […]
For orientation: Microsomes from liver hold many membrane-bound enzymes, among them those of drug oxidation.

Series [2] in a line: In vivo pharmacokinetics in female Balb/C mice. Also noted: species or system mouse. How it is done:
In this regard, three replicates of female Balb/C mice were dosed at either 3 mg/kg (intravenously, i.v.) or 10 mg/kg (orally, p.o.). Blood was sampled at specific time intervals over 48 h. The corresponding PK parameters were calculated using noncompartmental analysis (Table 2). […]
1.9. Determination of pharmacokinetic parameters […]
parameters. Compounds were administered either intravenously as a bolus solution […]
Mice were allowed to eat and access water freely.
To determine the PK parameters, blood samples were collected from the tail vein of the mice into heparinized microcentrifugation tubes at distinct sampling times (0.17, 0.5, 1, 3, 5, 7, 9, 24, and 48 hours for intravenous dosing; 0.5, 1, 3, 5, 7, 9, 24 and 48 hours for oral dosing). All samples were stored at -80 °C until extraction.
For the bioanalysis, frozen whole blood was thawed at room temperature and 1-0 µL of each sample was extracted by protein precipitation (using 100 µL of acetonitrile containing 10 ng/ml of the internal standard, MMV394902). The sample was centrifuged. Supernatants of each sample were injected into the LC-MS/MS column for analysis. The analytical limit of quantitation (LOQ) was 2 ng/mL. The pharmacokinetic parameters were calculated using noncompartmental analysis using PK Solutions 2.0 (Summit Research Services, Montrose, CO, USA) and a curve stripping-based method. […]
1.11. Plasma protein binding (PPB)
To determine the percentage of test compound bound to plasma, ultracentrifugation was used.
The test compound (5 µM of a 10 mM DMSO stock) was used to spike pooled human plasma.
An aliquot of the spiked solution was removed immediately and quenched with carbamazepine, […]

Another series deals with PfNF54 ABS parasites. The experiment in a line: SYBR Green I-based proliferative assay, PfNF54 ABS parasites. The settings on record: ABS, SYBR Green I, 96 h; mean ± S.E., N = 3 (no S.E.: N = 1). Format: cell-based, Plasmodium falciparum. As to the method:
The parasites were incubated under drug […]
incubation, parasite survival was determined by adding equal volumes of parasite suspension (100 µL) and SYBR Green I lysis buffer (0.2% µL/mL of 10 000x SYBR Green I, 20 mM Tris-HCl, pH 7.5, 5 mM EDTA, 0.008% saponin (w/v) and 0.08% Triton x-100). This was incubated for 1 hour at room temperature in the dark. […]

Series [3] in a line: Glutathione binding UV-Vis titration. Conditions: GSH binding.
Protocol: The binding of glutathione (GSH) to the platinum(II) complexes was monitored by observing the decrease in the metal-to-ligand-charge transfer (MLCT) band via a UV-Vis spectrophotometer.8 For this, 1–10 µL aliquots of GSH (0.4 M) in a PBS and DMSO (0.01% DMSO, v/v) mixture was added to a cuvette containing the relevant metal complex (50 µM) in the same solvent mixture. After each addition, the solution was stirred and allowed to incubate at room temperature for 3–5 minutes before recording the absorption spectrum between the wavelength range of 250–700 nm. These titrations were performed in triplicate and the average binding constants (logK) were reported with the standard error of the mean (SEM). The logK values were calculated from the best-fit model (describing a 1:1 association) using Equation 1.
Series [4] has as its system Chinese hamster ovary (CHO) cell line. Nature of the series: MTT cytotoxicity assay. Format: cell-based. Conditions: cytotoxicity, MTT, 48 h; N, n = 1, 3; read-out: CHO IC50.
In the next series the test system is red blood cells (RBCs). The experiment in a line: Hemolysis assay. Format: cell-based. Conditions: up to 10 μM, 1 and 72 h.
Series [5] can be described thus: Kinetic solubility by HPLC (pH 6.5). Conditions: kinetic, HPLC, pH 6.5. How it is done:
1.7. Kinetic solubility by HPLC (pH 6.5)
Solubility was measured at pH 6.5 using an adapted miniaturized shake-flask method, in 96-well plate format.4,5 Briefly, 4 µL of a 10 mM stock in DMSO was added to a 96-well plate and evaporated using a GeneVac system. Phosphate buffer pH 6.5 was then added to the wells […]
At the end of this incubation, the […]
in the analysis plate. Analysis was then performed by HPLC-DAD and the solubility of each sample was determined from the corresponding calibration curve. […]

From publication PMC11912270, “Synthesis and SAR Studies of Acyl-Thiourea Platinum(II) Complexes Yield Analogs with Dual-Stage Antiplasmodium Activity” (ACS Medicinal Chemistry Letters, 2025) come the findings set out here.

Protocol for red blood cells (RBCs): The hemolysis assay was conducted in a 96-well round-bottom plate. A 10 mM stock of the test compound in DMSO was diluted to 10 μM using complete growth medium. Complete growth medium (100 μL) was added to all wells in columns 1 and columns 3–12. The test compound in a complete growth medium (200 μL) were added in duplicate to well 2 and serially diluted two-fold down the plate (from wells 2–11). Triton X-100 (4%, v/v) was used as
RBCs in complete growth medium
(2% hematocrit) were lysed via three freeze/thaw cycles (-80 °C/37 °C) and were added to all wells in column 1 (100 µL). Intact RBCs in complete growth medium were added to wells 2– 12 and the plates were incubated at 37 °C for either 1 hour or 72 hours. After removing the plates from the incubator, each well was mixed thoroughly with a multichannel pipette and spun in a centrifuge at 750 rcf for 5 minutes. The supernatant was transferred to a 96-well flat-bottom plate and the absorbance of each well read on a microplate reader (Thermo Scientific
Percentage hemolysis was calculated using Equation 2 and the graphs generated using GraphPad Prism 10.
% ℎ𝑒𝑚𝑜𝑙𝑦𝑠𝑖𝑠 = (𝐴𝑠 ― 𝐴0) × 100 𝑬𝒒. 𝟐

For orientation: IC50 means the point on the concentration scale where inhibition reaches its midpoint. In the case of `Nc1cc[n+]2c(c1)-c1cc(N)cc[n+]1[Pt-2]21[O+]=C(c2ccccc2)N=C(N(CCO)CCO)[S]1.[Cl-]` [C6], in series [1], the “Microsomal metabolic stability (% remaining after 30 min) Mouse” value was determined as 94 % remaining. Moreover, in series [2] (3 mg/kg i.v.), the CLs i.v. turned out to be 46.4 mL/min/kg and the T1/2 i.v. amounted to 10.8 h. Besides, in series [2] (10 mg/kg p.o.), the T1/2 p.o. turned out to be 12.0 h. The compound further had a Bioavailability in series [2] (10 mg/kg p.o. vs 3 mg/kg i.v.) of 3.8%. Also, the Vss i.v. in series [2] (female Balb/C mice, 3 mg/kg i.v.) is 45.6 L/kg. Also, the Vssu in series [2] (i.v., unbound fraction) came to 4560 L/kg. In addition, the CLu in series [2] (p.o., unbound fraction) is recorded as more than 1000 mL min^–1 kg^–1. In series [2] (unbound fraction, Clu = Cls/Fu, i.v.), this compound displayed a CLu i.v. of more than 1000 mL/min/kg. In addition, the Vssu i.v. in series [2] (unbound fraction, Vssu = Vss/Fu, 3 mg/kg i.v.) amounted to 4560 L/kg. In the series on PfNF54 ABS parasites, this compound gave an IC50 of 36.3 ± 0.6 nM. The “Average logK ± SEM” value in series [3] (N = 3, PBS) worked out at 2.58 ± 0.19. For the same compound, the “LogK N = 1” value in series [3] (replicate N = 1) is reported as 2.80. In addition, the “LogK N = 2” value in series [3] (replicate N = 2) was determined as 2.21. Besides, the “LogK N = 3” value in series [3] (replicate N = 3) was 2.74. In addition, the IC50 in series [4] is more than 50000 nM. The “in vitro hemolytic activity” value in the series with red blood cells (RBCs) is “do not induce hemolysis”. Besides, the “Aqueous solubility pH 6.5” value in series [5] amounted to 100 μM.
